# Laboratory results reported in patent US9113629B2, “4-amino-6-(4-substituted-phenyl)-picolinates and 6-amino-2-(4-substituted-phenyl)-pyrimidine-4-carboxylates and their use as herbicides” (DOW AGROSCIENCES LLC, priority 2013, dated 2015).
# Tested on: HORSS: barley, including spring and winter (Hordeum vulgare)
# Assay: Post-emergent Test III, herbicidal activity in wheat and barley
# Assay type: in vivo
# Conditions: Table 9; dose for 20 percent growth reduction, probit analysis; 21 d
# Description: (§1) Post-emergent Test III. Seeds of the desired test plant species were planted in Sun Gro MetroMix® 306 planting mixture, which typically has a pH of 6.0 to 6.8 and an organic matter content of about 30 percent, in plastic pots with a surface area of 103.2 square centimeters (cm^2). When required to ensure good germination and healthy plants, a fungicide treatment and/or other chemical or physical treatment was applied. The plants were grown for 7-36 days (d) in a greenhouse with an approximate 14 hour (h) photoperiod which was maintained at about 18° C. during the day and 17° C. during the night. Nutrients and water were added on a regular basis and supplemental lighting was provided with overhead metal halide 1000-Watt lamps as necessary. The plants were employed for testing when they reached the second or third true leaf stage.
# (§2) A weighed amount, determined by the highest rate to be tested, of each test compound was placed in a 25 mL glass vial and was dissolved in 4 mL of a 97:3 v/v mixture of acetone and DMSO to obtain concentrated stock solutions. […] The concentrated stock solutions obtained were diluted with 20 mL of an aqueous mixture containing acetone, water, isopropyl alcohol, DMSO, Agri-Dex crop oil concentrate, and X-77 surfactant in a 48:39:10:1.5:1.5:0.02 v/v ratio to obtain spray solutions containing the highest application rates. Additional application rates were obtained by serial dilution of 12 mL of the high rate solution into a solution containing 2 mL of 97:3 v/v mixture of acetone and DMSO and 10 mL of an aqueous mixture containing acetone, water, isopropyl alcohol, DMSO, Agri-Dex crop oil concentrate, and X-77 surfactant in a 48:39:10:1.5:1.5:0.02 v/v ratio to obtain ½×, ¼×, ⅛× and 1/16× rates of the high rate. Compound requirements are based upon a 12 mL application volume at a rate of 187 liters per hectare (L/ha). Formulated compounds were applied to the plant material with an overhead Mandel track sprayer equipped with 8002E nozzles calibrated to deliver 187 L/ha over an application area of 0.503 square meters at a spray height of 18 inches (43 cm) above the average plant canopy height. Control plants were sprayed in the same manner with the solvent blank.
# (§3) The treated plants and control plants were placed in a greenhouse as described above and watered by subirrigation to prevent wash-off of the test compounds. After 21 d, the condition of the test plants as compared with that of the untreated plants was determined visually and scored on a scale of 0 to 100 percent where 0 corresponds to no injury and 100 corresponds to complete kill.
# (§4) By applying the well-accepted probit analysis as described by J. Berkson in Journal of the American Statistical Society, 48, 565 (1953) and by D. Finney in “Probit Analysis” Cambridge University Press (1952), herbicidal injury of a specific compound at various rates can be used to calculate GR20, GR50, GR80 and GR90 values, which are defined as growth reduction factors that correspond to the effective dose of herbicide required to provide plant growth reduction (GR) of 20 percent, 50 percent, 80 percent and 90 percent, respectively. Probit analysis was applied to data collected from multiple dose rates of individual compounds utilizing the procedures explained in the following examples. The analysis of those dose rates is captured in the following tables.
row,Structure (SMILES),GR20 HORSS [g ai/ha]
1,"Nc1c(F)c(-c2cc(F)c(Br)cc2F)nc(C(=O)O)c1Cl [Compound 42, 4-amino-6-(4-bromo-2,5-difluorophenyl)-3-chloro-5-fluoropicolinic acid]",1

# Tested on: KCHSC: kochia (Kochia scoparia)
# Assay: as above
# Assay type: in vivo
# Conditions: Bassia scoparia, post-emergence, 504 h; Table 9; 35 g ai/ha; post-emergent; 21 d; read-out: Visual Growth Reduction (%) 21 Days After Application KCHSC
# Description: as §1, §2, §3, §4
row,Structure (SMILES),pest or weed control at 35 g/ha [%]
1,"Nc1c(F)c(-c2cc(F)c(Br)cc2F)nc(C(=O)O)c1Cl [Compound 42, 4-amino-6-(4-bromo-2,5-difluorophenyl)-3-chloro-5-fluoropicolinic acid]",85 to 94

# Same assay, conditions: Bassia scoparia, post-emergence, 504 h; Table 9; 70 g ai/ha; post-emergent; 21 d; read-out: Visual Growth Reduction (%) 21 Days After Application KCHSC
row,Structure (SMILES),pest or weed control at 70 g/ha [%]
1,"Nc1c(F)c(-c2cc(F)c(Br)cc2F)nc(C(=O)O)c1Cl [Compound 42, 4-amino-6-(4-bromo-2,5-difluorophenyl)-3-chloro-5-fluoropicolinic acid]",60 to 74

# Same assay, conditions: Bassia scoparia, post-emergence, 504 h; Table 9; 140 g ai/ha; post-emergent; 21 d; read-out: Visual Growth Reduction (%) 21 Days After Application KCHSC
row,Structure (SMILES),pest or weed control at 140 g/ha [%]
1,"Nc1c(F)c(-c2cc(F)c(Br)cc2F)nc(C(=O)O)c1Cl [Compound 42, 4-amino-6-(4-bromo-2,5-difluorophenyl)-3-chloro-5-fluoropicolinic acid]",95 to 100

# Same assay, conditions: Table 9; dose for 50 percent growth reduction, probit analysis; 21 d
row,Structure (SMILES),GR50 KCHSC [g ai/ha]
1,"Nc1c(F)c(-c2cc(F)c(Br)cc2F)nc(C(=O)O)c1Cl [Compound 42, 4-amino-6-(4-bromo-2,5-difluorophenyl)-3-chloro-5-fluoropicolinic acid]",1

# Same assay, conditions: Table 9; dose for 80 percent growth reduction, probit analysis; 21 d
row,Structure (SMILES),GR80 KCHSC [g ai/ha]
1,"Nc1c(F)c(-c2cc(F)c(Br)cc2F)nc(C(=O)O)c1Cl [Compound 42, 4-amino-6-(4-bromo-2,5-difluorophenyl)-3-chloro-5-fluoropicolinic acid]",1

# Tested on: not listed separately
# Assay: as above
# Assay type: in vivo, Lolium multiflorum, Lolium rigidum
# Conditions: Lolium multiflorum, post-emergence, 504 h; Table 9; 35 g ai/ha; post-emergent; 21 d; read-out: Visual Growth Reduction (%) 21 Days After Application LOLSS
# Description: as §1, §2, §3, §4
row,Structure (SMILES),pest or weed control at 35 g/ha [%]
1,"Nc1c(F)c(-c2cc(F)c(Br)cc2F)nc(C(=O)O)c1Cl [Compound 42, 4-amino-6-(4-bromo-2,5-difluorophenyl)-3-chloro-5-fluoropicolinic acid]",30 to 44

# Same assay, conditions: Lolium multiflorum, post-emergence, 504 h; Table 9; 70 g ai/ha; post-emergent; 21 d; read-out: Visual Growth Reduction (%) 21 Days After Application LOLSS
row,Structure (SMILES),pest or weed control at 70 g/ha [%]
1,"Nc1c(F)c(-c2cc(F)c(Br)cc2F)nc(C(=O)O)c1Cl [Compound 42, 4-amino-6-(4-bromo-2,5-difluorophenyl)-3-chloro-5-fluoropicolinic acid]",45 to 59

# Same assay, conditions: Lolium multiflorum, post-emergence, 504 h; Table 9; 140 g ai/ha; post-emergent; 21 d; read-out: Visual Growth Reduction (%) 21 Days After Application LOLSS
row,Structure (SMILES),pest or weed control at 140 g/ha [%]
1,"Nc1c(F)c(-c2cc(F)c(Br)cc2F)nc(C(=O)O)c1Cl [Compound 42, 4-amino-6-(4-bromo-2,5-difluorophenyl)-3-chloro-5-fluoropicolinic acid]",75 to 84

# Tested on: SETVI: green foxtail (Setaria viridis)
# Assay: as above
# Assay type: in vivo
# Conditions: Setaria viridis, post-emergence, 504 h; Table 9; 35 g ai/ha; post-emergent; 21 d; read-out: Visual Growth Reduction (%) 21 Days After Application SETVI
# Description: as §1, §2, §3, §4
row,Structure (SMILES),pest or weed control at 35 g/ha [%]
1,"Nc1c(F)c(-c2cc(F)c(Br)cc2F)nc(C(=O)O)c1Cl [Compound 42, 4-amino-6-(4-bromo-2,5-difluorophenyl)-3-chloro-5-fluoropicolinic acid]",85 to 94

# Same assay, conditions: Setaria viridis, post-emergence, 504 h; Table 9; 70 g ai/ha; post-emergent; 21 d; read-out: Visual Growth Reduction (%) 21 Days After Application SETVI
row,Structure (SMILES),pest or weed control at 70 g/ha [%]
1,"Nc1c(F)c(-c2cc(F)c(Br)cc2F)nc(C(=O)O)c1Cl [Compound 42, 4-amino-6-(4-bromo-2,5-difluorophenyl)-3-chloro-5-fluoropicolinic acid]",85 to 94

# Same assay, conditions: Setaria viridis, post-emergence, 504 h; Table 9; 140 g ai/ha; post-emergent; 21 d; read-out: Visual Growth Reduction (%) 21 Days After Application SETVI
row,Structure (SMILES),pest or weed control at 140 g/ha [%]
1,"Nc1c(F)c(-c2cc(F)c(Br)cc2F)nc(C(=O)O)c1Cl [Compound 42, 4-amino-6-(4-bromo-2,5-difluorophenyl)-3-chloro-5-fluoropicolinic acid]",95 to 100

# Same assay, conditions: Table 9; dose for 50 percent growth reduction, probit analysis; 21 d
row,Structure (SMILES),GR50 SETVI [g ai/ha]
1,"Nc1c(F)c(-c2cc(F)c(Br)cc2F)nc(C(=O)O)c1Cl [Compound 42, 4-amino-6-(4-bromo-2,5-difluorophenyl)-3-chloro-5-fluoropicolinic acid]",1

# Same assay, conditions: Table 9; dose for 80 percent growth reduction, probit analysis; 21 d
row,Structure (SMILES),GR80 SETVI [g ai/ha]
1,"Nc1c(F)c(-c2cc(F)c(Br)cc2F)nc(C(=O)O)c1Cl [Compound 42, 4-amino-6-(4-bromo-2,5-difluorophenyl)-3-chloro-5-fluoropicolinic acid]",19
